For one assay, the system named is LoVo cells. The assay can be described thus: MTT based cell viability assay on LoVo cells. Particulars: Homo sapiens, LoVo, 72 h, 3 d, read-out: IC50, growth inhibition of LoVo cells. An outline of the steps:
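Inhibition of LoVo proliferation was derived as IC50 from a sigmoidal dose-response fit of cell survival. Readout was MTT (0.5 mg/mL, 4 h) with absorbance at 552/630/690 nm, after 3-day treatment at 37 °C. Eight-point series from 10 μM to 0.01 μM, DMSO control, 1% DMSO final.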

The next assay concerns the target Wee1 (h) (Homo sapiens, UniProt P30291). The assay is described as follows: Wee1 kinase (h) detection method, [γ-33P]-ATP filter assay. It counts as biochemical.
The test system of another assay is NCI-H1299 cells. The assay can be described thus: MTT based cell viability assay on NCI-H1299 cells. Particulars: Homo sapiens, read-out: IC50, growth inhibition of NCI-H1299 cells. An outline of the steps: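 Viability read-out was MTT reduction (0.5 mg/mL, 4 h, absorbance 552/630/690 nm) after 3-day compound exposure at 37 °C of NCI-H1299 cells seeded at 1000 per well. Dilutions spanned 10 μM–0.01 μM in DMSO, final DMSO 1‰. Survival-versus-concentration curves were fitted sigmoidally to give IC50.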

Where two headings read alike, the source gives them in different places. A value given as a limit tells only on which side of the number the result lay.

Wee1 (h), sequence (P30291 whole entry): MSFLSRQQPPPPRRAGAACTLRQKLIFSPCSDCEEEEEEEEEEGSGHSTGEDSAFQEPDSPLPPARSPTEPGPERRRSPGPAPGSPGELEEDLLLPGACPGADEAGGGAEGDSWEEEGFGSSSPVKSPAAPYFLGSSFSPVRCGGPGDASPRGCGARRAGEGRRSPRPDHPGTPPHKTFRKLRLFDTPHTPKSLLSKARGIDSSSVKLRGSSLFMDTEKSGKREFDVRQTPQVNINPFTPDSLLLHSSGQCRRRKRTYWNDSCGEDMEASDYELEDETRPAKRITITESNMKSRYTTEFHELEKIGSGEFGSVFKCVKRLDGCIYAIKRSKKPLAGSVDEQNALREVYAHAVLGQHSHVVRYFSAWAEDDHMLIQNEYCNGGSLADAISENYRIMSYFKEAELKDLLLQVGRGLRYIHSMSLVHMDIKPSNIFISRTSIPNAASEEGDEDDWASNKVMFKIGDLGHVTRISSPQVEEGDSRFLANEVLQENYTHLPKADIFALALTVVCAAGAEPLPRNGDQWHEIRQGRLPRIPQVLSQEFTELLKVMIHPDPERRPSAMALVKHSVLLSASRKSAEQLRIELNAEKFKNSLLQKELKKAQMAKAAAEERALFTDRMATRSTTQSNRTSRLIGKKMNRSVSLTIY

In the case of `Cc1cc(Nc2ncc3c(n2)N2CCN=C2N(c2c(Cl)cccc2Br)C3=O)cc(Br)c1N1CCN(C)CC1` [Example 167, 6-(2-Bromo-6-chlorophenyl)-2-((3-bromo-5-methyl-4-(4-methylpiperazin-1-yl)phenyl)amino)-8,9-dihydroimidazo[1,2-a]pyrimido[5,4-e]pyrimidin-5(6H)-one], the IC50 with LoVo cells turned out to be 62.7 nM; in the assay with NCI-H1299 cells (NCI-H1299, NCI-H1299 cells) it was 107 nM. Moreover, the “Inh. (%) of Wee1 kinase enzyme activity” value on Wee1 (h) (C 0.01 μm compound) worked out at 21%; on Wee1 (h) (C 0.1 μm compound), 82%; on Wee1 (h) (C 1 μm compound), 98%.
For the compound `C[C@@H]1CN(c2ccc(Nc3ncc4c(n3)N3CCN=C3N(c3c(Cl)cccc3Cl)C4=O)cc2C(F)(F)F)C[C@H](C)N1C` [Example 74, 6-(2,6-Dichlorophenyl)-2-((3-trifluoromethyl-4-((3S,5R)-3,4,5-trimethylpiperazin-1-yl)phenyl)amino)-8,9-dihydroimidazo[1,2-a]pyrimido[5,4-e]pyrimidin-5(6H)-one], the IC50 in the assay with LoVo cells came out at 182 nM; in the assay on NCI-H1299 cells (NCI-H1299, NCI-H1299 cells) it was 708 nM. The “Inh. (%) of Wee1 kinase enzyme activity” value at Wee1 (h) (C 0.01 μm compound) came to 15%; on Wee1 (h) (C 0.1 μm compound), 61%; on Wee1 (h) (C 1 μm compound) it was 98%.
`CN(C)CCOc1ccc(Nc2ncc3c(n2)N2CCN=C2N(c2c(F)cccc2Cl)C3=O)cc1` [Example 105, 6-(2-Chloro-6-fluorophenyl)-2-((4-(2-(dimethylamino)ethoxy)phenyl)amino)-8,9-dihydroimidazo[1,2-a]pyrimido[5,4-e]pyrimidin-5(6H)-one]: the IC50 in the assay with LoVo cells is 373 nM; with NCI-H1299 cells (NCI-H1299 cells), 911 nM. The “Inh. (%) of Wee1 kinase enzyme activity” value at Wee1 (h) (C 0.01 μm compound) was 40%; on Wee1 (h) (C 0.1 μm compound), 85%; at Wee1 (h) (C 1 μm compound) it was 97%.
Consider `C[C@@H]1CN(c2ccc(Nc3ncc4c(n3)N3CCN=C3N(c3c(F)cccc3Cl)C4=O)c(Cl)c2)C[C@H](C)N1C` [Example 39, 6-(2-Chloro-6-fluorophenyl)-2-((2-chloro-4-((3S,5R)-3,4,5-trimethylpiperazin-1-yl)phenyl)amino)-8,9-dihydroimidazo[1,2-a]pyrimido[5,4-e]pyrimidin-5(6H)-one], for which the IC50 in the assay on LoVo cells is more than 100000 nM; in the assay with NCI-H1299 cells (NCI-H1299 cells), more than 10000 nM. In addition, on Wee1 (h) (C 1 μm compound), the “Inh. (%) of Wee1 kinase enzyme activity” value is given as 28%.
Take `Cc1cc(Nc2ncc3c(n2)N2CCN=C2N(c2c(Cl)cccc2Cl)C3=O)cc(F)c1N1CCN(C)CC1` [Example 148, 6-(2,6-Dichlorophenyl)-2-((3-fluoro-5-methyl-4-(4-methylpiperazin-1-yl)phenyl)amino)-8,9-dihydroimidazo[1,2-a]pyrimido[5,4-e]pyrimidin-5(6H)-one]: the IC50 in the assay with LoVo cells was 39.8 nM; in the assay on NCI-H1299 cells (NCI-H1299, NCI-H1299 cells), 123 nM. Besides, the figures for the “Inh. (%) of Wee1 kinase enzyme activity” value at Wee1 (h) (C 0.01 μm compound), on Wee1 (h) (C 0.1 μm compound) and at Wee1 (h) (C 1 μm compound) were 40%, 90% and 94%, respectively.
The like results for `Cc1cc(Nc2ncc3c(n2)N2CCN=C2N(c2c(Cl)cccc2Cl)C3=O)ccc1N1CCN(C(C)C)CC1` [Example 76, 6-(2,6-Dichlorophenyl)-2-((4-(4-isopropylpiperazin-1-yl)-3-methylphenyl)amino)-8,9-dihydroimidazo[1,2-a]pyrimido[5,4-e]pyrimidin-5(6H)-one] were, in that order, 48.8 nM, 198 nM, 22%, 74% and 97%.
For the compound `Cc1cc(Nc2ncc3c(n2)N2CCN=C2N(c2c(F)cccc2F)C3=O)cc(C)c1N1CCN(C)CC1` [Example 101, 6-(2,6-Difluorophenyl)-2-((3,5-dimethyl-4-(4-methylpiperazin-1-yl)phenyl)amino)-8,9-dihydroimidazo[1,2-a]pyrimido[5,4-e]pyrimidin-5(6H)-one], the IC50 in the assay with LoVo cells stood at 95.4 nM; with NCI-H1299 cells (NCI-H1299, NCI-H1299 cells), 214 nM. Moreover, the “Inh. (%) of Wee1 kinase enzyme activity” value is on record as 22% on Wee1 (h) (C 0.01 μm compound), 70% at Wee1 (h) (C 0.1 μm compound) and 95% at Wee1 (h) (C 1 μm compound).
In the case of `CN1CCn2nc(Nc3ncc4c(n3)N3CCN=C3N(c3c(Cl)cccc3Cl)C4=O)cc2C1` [Example 79, 6-(2,6-Dichlorophenyl)-2-((5-methyl-4,5,6,7-tetrahydropyrazolo[1,5-a]pyrazin-2-yl)amino)-8,9-dihydroimidazo[1,2-a]pyrimido[5,4-e]pyrimidin-5(6H)-one], the half-maximal inhibitory concentration (IC50) is more than 100000 nM in the assay with LoVo cells and more than 10000 nM in the assay on NCI-H1299 cells (NCI-H1299 cells). The “Inh. (%) of Wee1 kinase enzyme activity” value on Wee1 (h) (C 1 μm compound) came out at 69%.
In the case of `Cc1cc(Nc2ncc3c(n2)N2CCN=C2N(c2c(F)cccc2Cl)C3=O)cc(C(F)(F)F)c1N1CCN(C)CC1` [Example 128, 6-(2-Chloro-6-fluorophenyl)-2-((3-methyl-4-(4-methylpiperazin-1-yl)-5-(trifluoromethyl)phenyl)amino)-8,9-dihydroimidazo[1,2-a]pyrimido[5,4-e]pyrimidin-5(6H)-one], the IC50 was 68.8 nM in the assay on LoVo cells and 306 nM in the assay on NCI-H1299 cells (NCI-H1299, NCI-H1299 cells). Moreover, the “Inh. (%) of Wee1 kinase enzyme activity” value at Wee1 (h) (C 0.01 μm compound) is recorded as 8%; on Wee1 (h) (C 0.1 μm compound), 61%; at Wee1 (h) (C 1 μm compound), 89%.
The matching figures for `CN1CCN(c2c(Cl)cc(Nc3ncc4c(n3)N3CCN=C3N(c3c(Cl)cccc3Cl)C4=O)cc2Br)CC1` [Example 155, 6-(2,6-Dichlorophenyl)-2-((3-bromo-5-chloro-4-(4-methylpiperazin-1-yl)phenyl)amino)-8,9-dihydroimidazo[1,2-a]pyrimido[5,4-e]pyrimidin-5(6H)-one]: 74.1 nM, 109 nM, 16%, 66% and 94%.
Take `Cc1cccc(Cl)c1N1C(=O)c2cnc(Nc3ccc(N4CCN(C)CC4)cc3)nc2N2CCN=C21` [Example 5, 6-(2-Chloro-6-methylphenyl)-2-((4-(4-methylpiperazin-1-yl)phenyl)amino)-8,9-dihydroimidazo[1,2-a]pyrimido[5,4-e]pyrimidin-5(6H)-one]: the IC50 in the assay with LoVo cells is 431 nM; with NCI-H1299 cells (NCI-H1299 cells), 941 nM. In addition, the “Inh. (%) of Wee1 kinase enzyme activity” value on Wee1 (h) (C 1 μm compound) is reported as 88%.
In the case of `Cc1cc(Nc2ncc3c(n2)N2CCN=C2N(c2c(Cl)cccc2Cl)C3=O)ccc1N1C[C@@H](C)N(C)[C@@H](C)C1` [Example 77, 6-(2,6-Dichlorophenyl)-2-((3-methyl-4-((3S,5R)-3,4,5-trimethylpiperazin-1-yl)phenyl)amino)-8,9-dihydroimidazo[1,2-a]pyrimido[5,4-e]pyrimidin-5(6H)-one], the IC50 in the assay on LoVo cells stood at 52.4 nM; in the assay on NCI-H1299 cells (NCI-H1299, NCI-H1299 cells), 217 nM. The figures for the “Inh. (%) of Wee1 kinase enzyme activity” value at Wee1 (h) (C 0.01 μm compound), on Wee1 (h) (C 0.1 μm compound) and on Wee1 (h) (C 1 μm compound) were 11%, 86% and 88%, respectively.
As to `CN1CCN(c2ccc(Nc3ncc4c(n3)N3CCN=C3N(c3c(Cl)cccc3Br)C4=O)cc2Br)CC1` [Example 162, 6-(2-Bromo-6-chlorophenyl)-2-((3-bromo-4-(4-methylpiperazin-1-yl)phenyl)amino)-8,9-dihydroimidazo[1,2-a]pyrimido[5,4-e]pyrimidin-5(6H)-one], the concentration for half-maximal inhibition (IC50) with LoVo cells worked out at 65.2 nM; in the assay on NCI-H1299 cells (NCI-H1299 cells), 207 nM. Also, the entries for the “Inh. (%) of Wee1 kinase enzyme activity” value on Wee1 (h) (C 0.01 μm compound), at Wee1 (h) (C 0.1 μm compound) and at Wee1 (h) (C 1 μm compound) were 22%, 86% and 98%, respectively.
Consider `C[C@@H]1CN(c2ccc(Nc3ncc4c(n3)N3CCN=C3N(c3c(Cl)cccc3Cl)C4=O)cc2F)C[C@H](C)N1C` [Example 70, 6-(2,6-Dichlorophenyl)-2-((3-fluoro-4-((3S,5R)-3,4,5-trimethylpiperazin-1-yl)phenyl)amino)-8,9-dihydroimidazo[1,2-a]pyrimido[5,4-e]pyrimidin-5(6H)-one], for which the half-maximal inhibitory concentration (IC50) came out at 124 nM in the assay on LoVo cells and 448 nM in the assay with NCI-H1299 cells (NCI-H1299, NCI-H1299 cells). The results for the “Inh. (%) of Wee1 kinase enzyme activity” value on Wee1 (h) (C 0.01 μm compound), at Wee1 (h) (C 0.1 μm compound) and at Wee1 (h) (C 1 μm compound) were 17%, 69% and 99%, respectively.
On to `CN1CCN(c2ccc(Nc3ncc4c(n3)N3CCN=C3N(c3c(Cl)cccc3Cl)C4=O)cc2C(F)(F)F)CC1` [Example 73, 6-(2,6-Dichlorophenyl)-2-((4-(4-methylpiperazin-1-yl)-3-(trifluoromethyl)phenyl)amino)-8,9-dihydroimidazo[1,2-a]pyrimido[5,4-e]pyrimidin-5(6H)-one], for which the IC50 stood at 194 nM in the assay on LoVo cells and 1430 nM in the assay with NCI-H1299 cells (NCI-H1299, NCI-H1299 cells). Further, at Wee1 (h) (C 1 μm compound), the “Inh. (%) of Wee1 kinase enzyme activity” value was 83%.
As to `Cc1cc(Nc2ncc3c(n2)N2CCN=C2N(c2c(Cl)cccc2Cl)C3=O)cc2c1CCN(C)C2` [Example 131, 6-(2,6-Dichlorophenyl)-2-((2,5-dimethyl-1,2,3,4-tetrahydroisoquinolin-7-yl)amino)-8,9-dihydroimidazo[1,2-a]pyrimido[5,4-e]pyrimidin-5(6H)-one], the concentration for half-maximal inhibition (IC50) is 187 nM in the assay with LoVo cells and 58.8 nM in the assay with NCI-H1299 cells (NCI-H1299, NCI-H1299 cells). Further, the figures for the “Inh. (%) of Wee1 kinase enzyme activity” value on Wee1 (h) (C 0.01 μm compound), on Wee1 (h) (C 0.1 μm compound) and at Wee1 (h) (C 1 μm compound) were 27%, 89% and 100%, respectively.

A word on the IC50: it is the point on the concentration scale where inhibition reaches its midpoint.

(Values after patent US11345711B2, “8,9-dihydroimidazo[1,2-a]pyrimido[5,4-e]pyrimidin-5(6H)-ones” (IMPACT THERAPEUTICS (SHANGHAI), INC, priority 2016, dated 2022).)
